Calls of active or inactive are those of the source. The rule behind the calls is not given here.
Key:
[1] = tested on: MCF7; assay: Antiproliferative activity against human MCF7 cells after 72 hrs by MTT assay; assay type: functional, cell-based; conditions: MCF7, 72 h
[2] = tested on: MDA-MB-231; assay: Antiproliferative activity against human MDA231 cells after 72 hrs by MTT assay; assay type: functional, cell-based; conditions: MDA-MB-231, 72 h
[3] = tested on: MCF7; assay: Cell cycle arrest in human MCF7 cells assessed as accumulation of cells at G1 phase after 48 hrs by propidium iodide staining-based flow cytometric analysis (reference value: 53.94%); assay type: functional
[4] = tested on: MCF7; assay: Induction of apoptosis in human MCF7 cells assessed as increase in caspase-7 mRNA expression after 48 hrs by RT-PCR analysis; assay type: functional, cell-based
[5] = tested on: MCF7; assay: Induction of apoptosis in human MCF7 cells assessed as increase in caspase-7 activity by ELISA; assay type: functional, cell-based
[6] = target: MAP kinase p38 (Homo sapiens, UniProt O15264+Q15759+Q16539+P53778); assay: Inhibition of p38alpha MAPK (unknown origin) using ATF-2 as substrate after 1 hr by ELISA; assay type: protein assay
[7] = tested on: MCF7; assay: Induction of apoptosis in human MCF7 cells assessed as early apoptotic cells after 48 hrs by Annexin V-FITC/propidium iodide staining-based flow cytometric analysis (reference value: 0.85%); assay type: functional
[8] = tested on: MCF7; assay: Induction of apoptosis in human MCF7 cells assessed as necrotic cells after 48 hrs by Annexin V-FITC/propidium iodide staining-based flow cytometric analysis (reference value: 0.34%); assay type: functional
[9] = tested on: MCF7; assay: Cell cycle arrest in human MCF7 cells assessed as accumulation of cells at preG phase after 48 hrs by propidium iodide staining-based flow cytometric analysis (reference value: 1.71%); assay type: functional
[10] = tested on: MCF7; assay: Induction of apoptosis in human MCF7 cells assessed as late apoptotic cells after 48 hrs by Annexin V-FITC/propidium iodide staining-based flow cytometric analysis (reference value: 0.52%); assay type: functional
[11] = tested on: MCF7; assay: Cell cycle arrest in human MCF7 cells assessed as accumulation of cells at G2/M phase after 48 hrs by propidium iodide staining-based flow cytometric analysis (reference value: 6.68%); assay type: functional
[12] = tested on: MCF7; assay: Cell cycle arrest in human MCF7 cells assessed as accumulation of cells at S phase after 48 hrs by propidium iodide staining-based flow cytometric analysis (reference value: 39.38%); assay type: functional

Structure (SMILES) | IC50 [1] | IC50 [2] | also measured
COc1c(-c2cc(-c3ccc(C)o3)[nH]c(=S)n2)c(O)c(CN2CCCCC2)c2occc12 | > 100 µM | > 100 µM | 
COc1c(C(=O)/C=C/c2ccc(C)o2)c(O)c(CN2CCN(C)CC2)c2occc12 | 4.86 µM | > 100 µM | 
Cc1cc(=O)c2c(OCc3nnc(S)o3)c3ccoc3cc2o1 | 13.2 µM | 12.4 µM | 
CS(=O)(=O)CCNCc1ccc(-c2ccc3ncnc(Nc4ccc(OCc5cccc(F)c5)c(Cl)c4)c3c2)o1 [LAPATINIB] | 4.69 µM | 4.69 µM | 
Cc1cc(=O)c2c(OCC(=O)NNC(=S)Nc3ccccc3)c3ccoc3cc2o1 | 2.44 µM | > 100 µM | 
COc1c(-c2cc(-c3ccc(C)o3)[nH]c(=S)n2)c(O)c(CN2CCOCC2)c2occc12 | 7.14 µM | > 100 µM | 
COc1c(-c2cc(-c3ccc(C)o3)[nH]c(=S)n2)c(O)c(Br)c2occc12 | 1.51 µM | 2 µM | 
COc1c(-c2cc(-c3ccc(C)o3)[nH]c(=O)n2)c(O)c(Br)c2occc12 | 1.94 µM | 1.23 µM | 
Cc1cc(=O)c2c(OCc3nnc(SCCN4CCOCC4)s3)c3ccoc3cc2o1 | 2.78 µM | > 100 µM | 
COc1c(-c2cc(-c3ccc(C)o3)c(C#N)c(N)n2)c(O)c(Br)c2occc12 | 1.19 µM | 2.65 µM | Activity [3]: 41.56%; Activity [4]: Active; Activity [5]: Active; IC50 [6]: 0.04 µM; Activity [7]: 5.36%; Activity [8]: 2.13%; Activity [9]: 16.69%; Activity [10]: 9.2%; Activity [11]: 23.63%; Activity [12]: 34.81%
Cc1cc(=O)c2c(OCc3nnc(S)s3)c3ccoc3cc2o1 | 1.65 µM | 7.07 µM | 
COc1c(-c2cc(-c3ccc(C)o3)[nH]c(=S)n2)c(O)c(CN2CCN(C)CC2)c2occc12 | 5.81 µM | > 100 µM | 
COc1c(C(=O)/C=C/c2ccc(C)o2)c(O)c(CN2CCCCC2)c2occc12 | > 100 µM | > 100 µM | 
COc1c(C(=O)/C=C/c2ccc(C)o2)c(O)c(Br)c2occc12 | 1.36 µM | 2.1 µM | IC50 [6]: 0.041 µM
Cc1cc(=O)c2c(OCc3nnc(SCCN4CCOCC4)o3)c3ccoc3cc2o1 | 3.82 µM | 8.74 µM | 
COc1c(C(=O)/C=C/c2ccc(C)o2)c(O)c(CN2CCOCC2)c2occc12 | > 100 µM | > 100 µM | 
Cc1cc(C)n(C(=O)COc2c3ccoc3cc3oc(C)cc(=O)c23)n1 | 2.5 µM | > 100 µM | 

Reference: ChEMBL document CHEMBL4480419, “Design and molecular modeling of novel P38α MAPK inhibitors targeting breast cancer, synthesized from oxygen heterocyclic natural compounds” (Bioorg Med Chem, 2019)
